Values quoted from earlier work as cited in patent publication US20070142399A1, “Dual function drugs and uses thereof” (Psychiatric Genomics, Inc., priority 2003, published 2007).

Legend:
D2 receptor = D2 receptor (Homo sapiens, UniProt P14416)
D1 receptor = D1 receptor (Homo sapiens, UniProt P21728)
Chain of D1 receptor (P21728 whole entry): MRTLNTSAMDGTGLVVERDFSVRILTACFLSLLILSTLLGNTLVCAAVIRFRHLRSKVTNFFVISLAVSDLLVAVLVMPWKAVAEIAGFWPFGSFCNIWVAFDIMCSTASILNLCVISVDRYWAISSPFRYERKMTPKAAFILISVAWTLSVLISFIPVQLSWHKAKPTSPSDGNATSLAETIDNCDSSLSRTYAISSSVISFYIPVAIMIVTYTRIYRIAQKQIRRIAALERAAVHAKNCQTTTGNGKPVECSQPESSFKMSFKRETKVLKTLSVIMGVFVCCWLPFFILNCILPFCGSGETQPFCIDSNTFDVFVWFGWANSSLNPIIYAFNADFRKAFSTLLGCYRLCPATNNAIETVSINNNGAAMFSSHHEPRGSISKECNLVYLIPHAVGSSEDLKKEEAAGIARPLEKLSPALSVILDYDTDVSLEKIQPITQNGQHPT

Chain of D2 receptor (P14416 whole entry): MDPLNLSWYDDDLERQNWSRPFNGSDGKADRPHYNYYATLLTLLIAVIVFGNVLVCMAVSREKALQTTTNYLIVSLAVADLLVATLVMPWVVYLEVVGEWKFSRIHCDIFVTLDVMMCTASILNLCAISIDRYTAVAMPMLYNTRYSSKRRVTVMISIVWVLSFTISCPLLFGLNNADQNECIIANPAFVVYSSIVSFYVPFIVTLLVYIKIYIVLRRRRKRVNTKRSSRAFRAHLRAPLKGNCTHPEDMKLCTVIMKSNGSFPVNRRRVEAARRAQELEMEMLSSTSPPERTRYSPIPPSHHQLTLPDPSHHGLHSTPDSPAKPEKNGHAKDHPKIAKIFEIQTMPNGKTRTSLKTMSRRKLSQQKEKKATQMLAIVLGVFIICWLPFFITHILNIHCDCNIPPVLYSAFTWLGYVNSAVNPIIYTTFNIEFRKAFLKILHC

D2 agonist activity (D2 receptor): residual partial D2 agonist activity | potency at the D1 receptor as an agonist (D1 receptor): not potent enough
SMILES: Oc1cc2c(cc1O)CC(NCc1ccccc1)CC2 (centres unmarked) [compound 80]
